This note sets out measurements from ChEMBL document CHEMBL5506059, “Cyanomethylquinolones as a New Class of Potential Multitargeting Broad-Spectrum Antibacterial Agents” (J Med Chem, 2024).

The test system of series [1] is Enterococcus faecalis. Description: Antibacterial activity against vancomycin-resistant Enterococcus faecalis clinical isolate p1-2007226001 assessed as inhibition of bacterial growth incubated for 24 hrs. In kind it is functional.
Series [2] has as its system Escherichia coli. Briefly: Antibacterial activity against Escherichia coli clinical isolate assessed as inhibition of bacterial growth incubated for 24 hrs. Type of series: functional.
Series [3] is described as follows: Hemolytic activity in human Red blood cells at 256 ug/ml measured after 1.5 hrs by absorbance based assay relative to control. Conditions: red blood cells (erythrocytes), at 256 µg/mL, read-out: Activity. Type of series: toxicity, cell-based, Erythrocyte.
The subject of series [4] is Pseudomonas aeruginosa. Briefly: Induction of morphological changes in Pseudomonas aeruginosa assessed as appearance of blurred intracellular boundaries with disintegration of bacterial structure at 2 ug/ml incubated for 3 hrs by SEM analysis. Type of series: functional, organism-based. Conditions: dose 2.0 µg/ml.
The next series has as its system Acinetobacter baumannii. Briefly: Antibacterial activity against Acinetobacter baumannii clinical isolate assessed as inhibition of bacterial growth incubated for 24 hrs. In kind it is functional.
Series [5] deals with Pseudomonas aeruginosa. Description: Induction of morphological changes in Pseudomonas aeruginosa assessed as appearance of concaved bacterial surface at 2 ug/ml incubated for 3 hrs by SEM analysis. Type of series: functional, organism-based. Conditions: dose 2.0 µg/ml.
The test system of the next series is Streptococcus pyogenes. Description: Antibacterial activity against Streptococcus pyogenes ATCC 19615 assessed as inhibition of bacterial growth incubated for 24 hrs. Type of series: functional.
The test system of series [6] is Staphylococcus aureus. Briefly: Antibacterial activity against Staphylococcus aureus ATCC 6538 assessed as inhibition of bacterial growth incubated for 24 hrs. In kind it is functional.
For series [7], the system named is Pseudomonas aeruginosa. Briefly: Antibacterial activity against Pseudomonas aeruginosa ATCC 27853 assessed as inhibition of bacterial growth incubated for 24 hrs. Type of series: functional.
Series [8] has as its system Staphylococcus aureus. Briefly: Induction of morphological changes in methicillin resistant Staphylococcus aureus assessed as appearance of wrinkled bacterial surface at 2 ug/ml incubated for 3 hrs by SEM analysis. In kind it is functional, organism-based. Conditions: dose 2.0 µg/ml.
Series [9] relates to Escherichia coli. Description: Antibacterial activity against Escherichia coli ATCC 25922 assessed as inhibition of bacterial growth incubated for 24 hrs. Type of series: functional.
The next series deals with L02. Briefly: Cytotoxicity against human L02 cells assessed as reduction in cell viability at 0.78 to 25 ug/ml measured after 24 hrs by MTT assay. Type of series: toxicity, cell-based. Conditions: l02, 24 h, dose 0.78-25 µg/ml.
The subject of series [10] is Pseudomonas aeruginosa. Description: Induction of morphological changes in Pseudomonas aeruginosa assessed as appearance of wrinkled bacterial surface at 2 ug/ml incubated for 3 hrs by SEM analysis. Type of series: functional, organism-based. The settings on record: dose 2.0 µg/ml.
The subject of another series is Cell membrane. Description: Induction of cell membrane damage in methicillin-resistant Staphylococcus aureus assessed as increase in nucleic acid leakage at 0 to 2 ug/ml incubated for 12 hrs by optical density based microplate reader analysis. Type of series: cell membranes. The settings on record: dose 0-2 µg/ml.
In series [11] the test system is Staphylococcus aureus. Briefly: Induction of morphological changes in methicillin resistant Staphylococcus aureus assessed as appearance of concaved bacterial surface at 2 ug/ml incubated for 3 hrs by SEM analysis. Type of series: functional, organism-based. The settings on record: dose 2.0 µg/ml.
Series [12] relates to Staphylococcus aureus. Briefly: Antibacterial activity against Staphylococcus aureus CMCC(B)26001 assessed as inhibition of bacterial growth incubated for 24 hrs. Type of series: functional.
In series [13] the test system is Staphylococcus aureus. Description: Antibacterial activity against Staphylococcus aureus ATCC 25923 assessed as inhibition of bacterial growth incubated for 24 hrs. Type of series: functional.
Series [14] deals with Staphylococcus aureus. Description: Antibacterial activity against Staphylococcus aureus CMCC(B)26003 assessed as inhibition of bacterial growth incubated for 24 hrs. Type of series: functional.
In series [15] the test system is Enterococcus faecalis. Description: Potency index, ratio of norfloxacin MIC to test compound MIC for antibacterial activity against vancomycin-resistant Enterococcus faecalis clinical isolate p1-2007225053 assessed as inhibition of bacterial growth incubated for 24 hrs. In kind it is functional.
The subject of series [16] is Staphylococcus aureus. Description: Antibacterial activity against Staphylococcus aureus ATCC 12600 assessed as inhibition of bacterial growth incubated for 24 hrs. Type of series: functional.
In a further series the test system is Streptococcus pneumoniae. Briefly: Antibacterial activity against Streptococcus pneumoniae ATCC 6305 assessed as inhibition of bacterial growth incubated for 24 hrs. Type of series: functional.

Values after ≈ are worked out from the molar mass of the structure shown. Active and inactive are the calls of the source. The rule behind the calls is not given here. Where only a bound is given, the exact number is not on record here.

Usually MIC stands for the lowest concentration found to suppress growth. For `N#CCc1cc2c(cc1F)c(=O)c(C(=O)O)cn2C1CC1`, the minimal inhibitory concentration (MIC) stood at 4 µg/mL (≈ 14 µM) in the series on Enterococcus faecalis [1]; 2 µg/mL (≈ 6.99 µM) in the series with Escherichia coli [2]; 0.25 µg/mL (≈ 0.873 µM) in the series with Acinetobacter baumannii; 0.25 µg/mL (≈ 0.873 µM) with Streptococcus pyogenes; 0.5 µg/mL (≈ 1.75 µM) with Staphylococcus aureus [6]; 0.5 µg/mL (≈ 1.75 µM) in the series on Pseudomonas aeruginosa [7]. Also, the MIC was found to be 0.5 µg/mL (≈ 1.75 µM) in the series with Escherichia coli [9]; 0.125 µg/mL (≈ 0.437 µM) in the series on Staphylococcus aureus [12]; 4 µg/mL (≈ 14 µM) in the series with Staphylococcus aureus [13]; 0.125 µg/mL (≈ 0.437 µM) with Staphylococcus aureus [14]; 1 µg/mL (≈ 3.49 µM) in the series with Staphylococcus aureus [16]; 0.5 µg/mL (≈ 1.75 µM) with Streptococcus pneumoniae. The hemolysis at 1.5 h, 256 ug/ml in [3] was less than 1%. The result in the series with Pseudomonas aeruginosa [4], in the series on Pseudomonas aeruginosa [5], in the series with Staphylococcus aureus [8], in the series on Pseudomonas aeruginosa [10], in the series with Cell membrane and in the series with Staphylococcus aureus [11] was Active. Moreover, the Activity result in the series with L02 is on record as “Non-Toxic”. In the series on Enterococcus faecalis [15], the Ratio is reported as 8.
